From publication PMC8038991, “R-catcher, a potent molecular tool to unveil the arginylome” (Cellular and Molecular Life Sciences: CMLS, 2021)
“Also recorded” adds a separate entry of the source.

What was measured:
[1] = system: R-catcher; assay: R-catcher pulldown in +/+ and ATE1-/- MEFs; assay type: binding; conditions: +/+ versus ATE1-/- MEFs, MG132 plus TG, 9 h, Fig. 6b
Protocol: (§1) For small-scale R-catcher pull-down assays, 300 µg of purified R-catcher was conjugated with 120 µl of Strep-Tactin sepharose resin by incubating overnight at 4 °C. To test R-catcher’s ability to capture known arginylated proteins, such as R-BiP, R-PDI, R-nsP4 and R-RGS4, plasmids encoding Ub-X-(BiP, PDI and nsP4) or MX-RGS4 (X = Arg or Val) were transiently transfected into HEK293 cells. After 24 h, cells were treated with 10 µM MG132 and 100 nM thapsigargin for another 24 h. […]
(§2) Plasmids encoding the proteins were transiently transfected to HeLa cells for 24 h and stimulated with 5 µM MG132 plus 100 nM TG for another 24 h. […] Cell lysates were subjected to R-catcher pulldown, and bound proteins were detected by western blot analysis. c R-catcher pull-down assays to evaluate if the arginylation of FBNL1, SERPINH1, CLUS and PRDX4 is induced in response to MG132 plus thapsigargin. d X-peptide pulldown assays to confirm no interaction of R-catcher with Nt-Ala19 of SERPINH1 peptides and Nt-Trp38 of PRDX4 peptides. […] Bound GST-ZZ (N132D) was detected by immunoblotting. e Identification of arginylated sites employing mutational analysis. […]

[2] = Identification of arginylation sites, GelNrich and in-gel digestion LC-MS/MS
Description: Upon separation of the immunoprecipitated protein by SDS-PAGE and staining with Coomassie Blue, the corresponding protein band was excised, half of which was subjected to GelNrich and the other half to conventional in-gel digestion GelNrich is an N-terminal peptide enrichment method based on in-gel digestion. The method includes in-gel protein level labeling of primary amines using d6-acetic anhydride and post-digestion negative selection of labeled N-terminal peptide(s) using N-hydroxysuccinimide activated agarose beads. Peptides recovered from GelNrich or in-gel digestion were dried in a vacuum evaporator and reconstituted in 0.1% formic acid. An aliquot was injected from a cooled (10 °C) auto-sampler into a reversed-phase EASY-Spray column (25 cm × 75 μm, Thermo Fisher Scientific) on an Eksigent nanoLC-ultra 1D plus system (Danaher Corporation) at a flow rate of 300 nL/min. Prior to use, the column was equilibrated with 96% buffer A (0.1% formic acid in water) and 4% buffer B (0.1% formic acid in acetonitrile). The peptides were eluted with a linear gradient from 4 to 35% buffer B over 60 min and 35–80% buffer B over 2 min followed by an organic wash and aqueous re-equilibration at a flow rate of 300 nL/min with a total run time of 96 min. The HPLC system was coupled to a Q-Exactive mass spectrometer (Thermo Fisher Scientific) operated in a data-dependent acquisition (DDA) mode. […]

[3] = system: R-catcher; assay: R-catcher pulldown of putative arginylated ER proteins, HeLa; assay type: binding, human; conditions: 5 µM MG132 plus 100 nM TG, RA competition, Fig. 6a
Protocol: For small-scale R-catcher pull-down assays, 300 µg of purified R-catcher was conjugated with 120 µl of Strep-Tactin sepharose resin by incubating overnight at 4 °C. To test R-catcher’s ability to capture known arginylated proteins, such as R-BiP, R-PDI, R-nsP4 and R-RGS4, plasmids encoding Ub-X-(BiP, PDI and nsP4) or MX-RGS4 (X = Arg or Val) were transiently transfected into HEK293 cells. After 24 h, cells were treated with 10 µM MG132 and 100 nM thapsigargin for another 24 h. Cells were harvested and lysed in hypotonic buffer and 300 µg total protein was incubate with 25 µl R-catcher-sepharose resin in binding buffer (20 mM HEPES pH 7.9, 0.05% Tween 20, 10% glycerol, 0.2 M KCl, protease inhibitor and phosphatase inhibitor) for 3 h with gentle rotation at 4 °C. After three washes with binding buffer, bound proteins were dissociated with 2 × SDS sample buffer and boiling at 100 °C and subjected to immunoblotting using anti-myc or flag antibodies.
Plasmids encoding the proteins were transiently transfected to HeLa cells for 24 h and stimulated with 5 µM MG132 plus 100 nM TG for another 24 h. Cell lysates were incubated with R-catcher immobilized on tactin beads for 3 h. After wash, bound proteins were eluted with 2 × SDS sample buffer followed by boiling at 100 °C for 10 min and visualized by western blot analysis. b R-catcher pulldown assays to validate ATE1-dependent arginylation of […]1, PRDX4, FBLN1 and CLUS. Plasmids encoding […]1, PRDX4, FBLN1 and CLUS were transiently transfected into + / + and ATE1^−/− MEFs for 24 h and stimulated with 5 µM MG132 plus 100 nM TG for another 9 h. Cell lysates were subjected to R-catcher pulldown, and bound proteins were detected by western blot analysis. c R-catcher pull-down assays to evaluate if the arginylation of FBNL1, SERPINH1, CLUS and PRDX4 is induced in response to MG132 plus thapsigargin. d X-peptide pulldown assays to confirm no interaction of R-catcher with Nt-Ala19 of SERPINH1 peptides and Nt-Trp38 of PRDX4 peptides. X-peptides where X is A19 (SignalP predicted P1’ site), E20 (next possible P1’ site predicted by PrediSi) or R19 (Arginylated form of Glu) for SERPINH1 and W38 (SignalP predicted P1’ site), E39 (next possible P1’ site predicted by PrediSi) or R38 (Arginylated form) for PRDX4. Biotinylated X-peptides immobilized on streptavidin agarose beads were incubated with affinity-purified GST-ZZ ([…]). Bound GST-ZZ (N132D) was detected by immunoblotting. e Identification of arginylated sites employing mutational analysis. Predicted P1’ sites of SERPINH1, PRDX4, CLUS and FBLN1 were substituted to Gly, and the inhibitory effect of the mutation on binding with R-catcher was examined by performing R-catcher pulldown assays

[4] = system: R-catcher; assay: R-catcher pulldown of P1' site Gly mutants; assay type: binding, human; conditions: E20 SERPINH1, E30 (printed) PRDX4, D23 CLUS, D30 FBLN1 to Gly, Fig. 6e
Protocol: as §1, §2

[5] = system: GST-ZZ122-175^N132D; assay: GST-ZZ122-175^N132D pulldown from HeLa lysates (MG132 plus TG); assay type: binding, human; conditions: HeLa lysate, immunoblot
Description: Using these lysates and purified GST tagged ZZ122-175^N132D (Supplementary Fig. 4A) immobilized on glutathione resin, we performed pulldown assays. […] In addition to pulling down R-BiP and R-CRT, GST-ZZ122-175^N132D was able to capture polyubiquitinated proteins, which were also disrupted by the D129A mutation and RA dipeptide competition (Supplementary Fig. 4B). This was expected because arginylated proteins are known to be ubiquitinated by E3 ligases containing a UBR box leading to their proteasomal degradation.
Fig. 4 ZZ122-175 ^N132D is capable of capturing known arginylated proteins in cells. a Western blot analysis to visualize arginylated BiP and CRT. […] N-terminally arginylated BiP and CRT were detected by immunoblotting using anti R-BiP and R-CRT antibodies. b GST pulldown assays to test the ability of wild type (WT) and N132D GST-ZZ in capturing cellular R-BiP and R-CRT. […] Pulled down R-BiP and R-CRT were detected using anti R-BiP and R-CRT antibodies. c Schematic drawing illustrating R-catcher. […] R-catcher bound arginylated proteins were detected by immunoblotting using anti-Myc or Flag antibody. e R-catcher pulldown assay to capture R-BiP and R-CRT induced in HeLa cells stimulated with MG132 plus TG in the absence or presence of 20 mM dipeptides TEXT PRINTED IN THE PICTURE: (C) R-catcher: ~ 9 kDa

Substance	capture by R-catcher, ATE1 dependence [1]	arginylation detected by mass spectrometry [2]	binding with R-catcher, Nt-Arg dependence [3]	effect of Gly substitution of P1' site on interaction with R-catcher [4]	pulldown by GST-ZZ122-175^N132D [5]
CLU: clusterin	captured by R-catcher in an ATE1-dependent manner	arginylation at the D23 residue	Nt-Arg-dependent binding with R-catcher	significantly impaired their interaction with R-catcher; also recorded: abolished their binding with R-catcher	
R-BiP: Nt-arginylated BiP			bound R-catcher in an Nt-Arg-dependent manner		efficiently pull down
